Reference: US9944019B2, “Tip-loaded microneedle arrays for transdermal insertion” (University of Pittsburgh—Of the Commonwealth System of …, priority 2012, dated 2018)

Test system: epidermal cells
Test: Apoptosis in living human skin organ cultures, green fluorescent TUNEL assay
Format: cell-based
Conditions: arrays removed after 5 minutes, 72 hours of exposure; pyramidal CMC-microneedle arrays
Protocol: Cytoxan® was integrated at a concentration of 5 mg/g of CMC, enabling delivery of approximately about 140 μg per array. This is a therapeutically relevant concentration based on the area of skin targeted, yet well below levels associated with systemic toxicities. Living human skin organ cultures were used to assess the cytotoxicty of Cytoxan®. Cytoxan® was delivered by application of arrays to skin explants as we previously described. Arrays and residual material were removed 5 minutes after application, and after 72 hours of exposure, culture living skin explants were cryo-sectioned and fixed.

O=P1(N(CCCl)CCCl)NCCCO1 (stereo not shown) [Cytoxan®, cyclophosphamide]
apoptosis (TUNEL): extensive apoptosis of epidermal cells
